Measured values published in paper PMC6409085, “Three odorant-binding proteins are involved in the behavioral response of Sogatella furcifera to rice plant volatiles” (PeerJ, 2019).
“And” between values parts separate entries of the source, which are not always exact repeats. Equal entries are not always repeated.

Legend:
[1] = target: SfurOBP1 (Sogatella furcifera, UniProt V5T8N5); assay: biochemical; format: binding; conditions: for Fluorescence competitive binding assay, fluorescence intensity: OBP1, three replicate columns
Summary of the method: (§1)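 Fluorescence competitive binding with 1-NPN as reporter: 2.0 µM protein and 2.0 µM 1-NPN in 50 mM Tris-HCl pH 7.4, odorant added at 2–20 µM final. Excitation 337 nm, emission 390–490 nm read 2 min after addition, triplicates. Ki = IC50/(1 + [1-NPN]/K1-NPN).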

[2] = target: SfurOBP11 (Sogatella furcifera, UniProt V5T6E3); assay: biochemical; format: binding
Summary of the method: as §1

[3] = target: SfurOBP2 (Sogatella furcifera, UniProt V5T759); assay: biochemical; format: binding
Summary of the method: as §1

[4] = target: SfurOBP3 (Sogatella furcifera, UniProt V5T818); assay: biochemical; format: binding; conditions: for Fluorescence competitive binding assay, fluorescence intensity: OBP3, three replicate columns
Summary of the method: as §1

[5] = tested on: S. furcifera adults; assay: Y-tube olfactometer behavioral trials; format: in vivo, Sogatella furcifera; conditions: odorant 50 µL/L vs hexane; adults
Summary of the method: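 Single S. furcifera adults (2 days post-emergence, starved 0.5 h) chose between odorant (100 µL of 50 µL/L on filter paper) and hexane control in a glass Y-tube, charcoal-filtered humidified air 300 mL/min per arm, 25 ± 1 °C, 50% RH. Choice scored if insect passed half an arm and stayed >1 min within 10 min; 45 insects per compound, chi-squared test.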

Sequence of SfurOBP11 (V5T6E3 entry or part of it): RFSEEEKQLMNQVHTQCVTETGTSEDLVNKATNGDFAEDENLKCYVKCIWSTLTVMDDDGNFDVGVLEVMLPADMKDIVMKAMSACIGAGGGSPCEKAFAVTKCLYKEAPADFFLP
Sequence of SfurOBP3 (V5T818 entry or part of it): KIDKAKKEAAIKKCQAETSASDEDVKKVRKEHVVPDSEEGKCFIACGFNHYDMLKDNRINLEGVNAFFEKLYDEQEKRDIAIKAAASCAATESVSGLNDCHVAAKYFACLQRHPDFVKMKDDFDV
Sequence of SfurOBP2 (V5T759 entry or part of it): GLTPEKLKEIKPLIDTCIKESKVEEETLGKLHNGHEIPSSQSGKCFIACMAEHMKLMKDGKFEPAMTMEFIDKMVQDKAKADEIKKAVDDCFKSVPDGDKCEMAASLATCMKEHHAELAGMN
Sequence of SfurOBP1 (V5T8N5 entry or part of it): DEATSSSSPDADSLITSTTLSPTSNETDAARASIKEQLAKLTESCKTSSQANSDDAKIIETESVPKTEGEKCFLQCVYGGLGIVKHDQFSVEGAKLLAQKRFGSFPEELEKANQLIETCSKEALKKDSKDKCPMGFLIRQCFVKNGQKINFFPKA

- Fluorescence competitive binding assay, fluorescence intensity ([1]; ligand concentration 2 (μM)): 7802 and 7217 and 8367
- Fluorescence competitive binding assay, fluorescence intensity ([1]; ligand concentration 4 (μM)): 10256 and 8383 and 7448
- Fluorescence competitive binding assay, fluorescence intensity ([1]; ligand concentration 6 (μM)): 7755 and 7709 and 7657
- Fluorescence competitive binding assay, fluorescence intensity ([1]; ligand concentration 8 (μM)): 8353 and 6725 and 6896
- Fluorescence competitive binding assay, fluorescence intensity ([1]; ligand concentration 10 (μM)): 7309 and 7612 and 6541
- Fluorescence competitive binding assay, fluorescence intensity ([1]; ligand concentration 12 (μM)): 7182 and 6932 and 8389
- Fluorescence competitive binding assay, fluorescence intensity ([1]; ligand concentration 14 (μM)): 7695 and 6348 and 8106
- Fluorescence competitive binding assay, fluorescence intensity ([1]; ligand concentration 16 (μM)): 7645 and 7087 and 7719
- Fluorescence competitive binding assay, fluorescence intensity ([1]; ligand concentration 18 (μM)): 9286 and 8583 and 8604
- Fluorescence competitive binding assay, fluorescence intensity ([1]; ligand concentration 20 (μM)): 13401 and 7898 and 7495
- IC50 ([1]; SfurOBP1, protein and 1-NPN both 2.0 µM, competitor 2-20 µM, read-out: IC50): > 20 µM
- IC50 ([2]; SfurOBP11, protein and 1-NPN both 2.0 µM, competitor 2-20 µM, read-out: IC50): > 20 µM
- Fluorescence intensity, fluorescence competitive binding assay, OBP11 ([2]; ligand concentration 2, replicate 1): 31191
- Fluorescence intensity, fluorescence competitive binding assay, OBP11 ([2]; ligand concentration 2, replicate 2): 27026
- Fluorescence intensity, fluorescence competitive binding assay, OBP11 ([2]; ligand concentration 2, replicate 3): 27251
- Fluorescence intensity, fluorescence competitive binding assay, OBP11 ([2]; ligand concentration 4, replicate 1): 33062
- Fluorescence intensity, fluorescence competitive binding assay, OBP11 ([2]; ligand concentration 4, replicate 2): 32235
- Fluorescence intensity, fluorescence competitive binding assay, OBP11 ([2]; ligand concentration 4, replicate 3): 30749
- Fluorescence intensity, fluorescence competitive binding assay, OBP11 ([2]; ligand concentration 6, replicate 1): 33680
- Fluorescence intensity, fluorescence competitive binding assay, OBP11 ([2]; ligand concentration 6, replicate 2): 31560
- Fluorescence intensity, fluorescence competitive binding assay, OBP11 ([2]; ligand concentration 6, replicate 3): 31826
- Fluorescence intensity, fluorescence competitive binding assay, OBP11 ([2]; ligand concentration 8, replicate 1): 29344
- Fluorescence intensity, fluorescence competitive binding assay, OBP11 ([2]; ligand concentration 8, replicate 2): 31482
- Fluorescence intensity, fluorescence competitive binding assay, OBP11 ([2]; ligand concentration 8, replicate 3): 30513
- Fluorescence intensity, fluorescence competitive binding assay, OBP11 ([2]; ligand concentration 10, replicate 1): 29393
- Fluorescence intensity, fluorescence competitive binding assay, OBP11 ([2]; ligand concentration 10, replicate 2): 28581
- Fluorescence intensity, fluorescence competitive binding assay, OBP11 ([2]; ligand concentration 10, replicate 3): 27079
- Fluorescence intensity, fluorescence competitive binding assay, OBP11 ([2]; ligand concentration 12, replicate 1): 26945
- Fluorescence intensity, fluorescence competitive binding assay, OBP11 ([2]; ligand concentration 12, replicate 2): 26618
- Fluorescence intensity, fluorescence competitive binding assay, OBP11 ([2]; ligand concentration 12, replicate 3): 27193
- Fluorescence intensity, fluorescence competitive binding assay, OBP11 ([2]; ligand concentration 14, replicate 1): 24856
- Fluorescence intensity, fluorescence competitive binding assay, OBP11 ([2]; ligand concentration 14, replicate 2): 26161
- Fluorescence intensity, fluorescence competitive binding assay, OBP11 ([2]; ligand concentration 14, replicate 3): 27383
- Fluorescence intensity, fluorescence competitive binding assay, OBP11 ([2]; ligand concentration 16, replicate 1): 23278
- Fluorescence intensity, fluorescence competitive binding assay, OBP11 ([2]; ligand concentration 16, replicate 2): 23147
- Fluorescence intensity, fluorescence competitive binding assay, OBP11 ([2]; ligand concentration 16, replicate 3): 23455
- Fluorescence intensity, fluorescence competitive binding assay, OBP11 ([2]; ligand concentration 18, replicate 1): 27255
- Fluorescence intensity, fluorescence competitive binding assay, OBP11 ([2]; ligand concentration 18, replicate 2): 25416
- Fluorescence intensity, fluorescence competitive binding assay, OBP11 ([2]; ligand concentration 18, replicate 3): 25774
- Fluorescence intensity, fluorescence competitive binding assay, OBP11 ([2]; ligand concentration 20, replicate 1): 25007
- Fluorescence intensity, fluorescence competitive binding assay, OBP11 ([2]; ligand concentration 20, replicate 2): 22862
- Fluorescence intensity, fluorescence competitive binding assay, OBP11 ([2]; ligand concentration 20, replicate 3): 22028
- IC50 ([3]; SfurOBP2, protein and 1-NPN both 2.0 µM, competitor 2-20 µM, read-out: IC50): > 20 µM
- Fluorescence competitive binding assay, OBP2 (raw fluorescence reading) ([3]; ligand concentration 2 (unit not given), replicate column 1 of 3): 22495
- Fluorescence competitive binding assay, OBP2 (raw fluorescence reading) ([3]; ligand concentration 2 (unit not given), replicate column 2 of 3): 22840
- Fluorescence competitive binding assay, OBP2 (raw fluorescence reading) ([3]; ligand concentration 2 (unit not given), replicate column 3 of 3): 21233
- Fluorescence competitive binding assay, OBP2 (raw fluorescence reading) ([3]; ligand concentration 4 (unit not given), replicate column 1 of 3): 23391
- Fluorescence competitive binding assay, OBP2 (raw fluorescence reading) ([3]; ligand concentration 4 (unit not given), replicate column 2 of 3): 22604
- Fluorescence competitive binding assay, OBP2 (raw fluorescence reading) ([3]; ligand concentration 4 (unit not given), replicate column 3 of 3): 23347
- Fluorescence competitive binding assay, OBP2 (raw fluorescence reading) ([3]; ligand concentration 6 (unit not given), replicate column 1 of 3): 22973
- Fluorescence competitive binding assay, OBP2 (raw fluorescence reading) ([3]; ligand concentration 6 (unit not given), replicate column 2 of 3): 22972
- Fluorescence competitive binding assay, OBP2 (raw fluorescence reading) ([3]; ligand concentration 6 (unit not given), replicate column 3 of 3): 22119
- Fluorescence competitive binding assay, OBP2 (raw fluorescence reading) ([3]; ligand concentration 8 (unit not given), replicate column 1 of 3): 20829
- Fluorescence competitive binding assay, OBP2 (raw fluorescence reading) ([3]; ligand concentration 8 (unit not given), replicate column 2 of 3): 21110
- Fluorescence competitive binding assay, OBP2 (raw fluorescence reading) ([3]; ligand concentration 8 (unit not given), replicate column 3 of 3): 19166
- Fluorescence competitive binding assay, OBP2 (raw fluorescence reading) ([3]; ligand concentration 10 (unit not given), replicate column 1 of 3): 18739
- Fluorescence competitive binding assay, OBP2 (raw fluorescence reading) ([3]; ligand concentration 10 (unit not given), replicate column 2 of 3): 19572
- Fluorescence competitive binding assay, OBP2 (raw fluorescence reading) ([3]; ligand concentration 10 (unit not given), replicate column 3 of 3): 20059
- Fluorescence competitive binding assay, OBP2 (raw fluorescence reading) ([3]; ligand concentration 12 (unit not given), replicate column 1 of 3): 18220
- Fluorescence competitive binding assay, OBP2 (raw fluorescence reading) ([3]; ligand concentration 12 (unit not given), replicate column 2 of 3): 17338
- Fluorescence competitive binding assay, OBP2 (raw fluorescence reading) ([3]; ligand concentration 12 (unit not given), replicate column 3 of 3): 19313
- Fluorescence competitive binding assay, OBP2 (raw fluorescence reading) ([3]; ligand concentration 14 (unit not given), replicate column 1 of 3): 18807
- Fluorescence competitive binding assay, OBP2 (raw fluorescence reading) ([3]; ligand concentration 14 (unit not given), replicate column 2 of 3): 18093
- Fluorescence competitive binding assay, OBP2 (raw fluorescence reading) ([3]; ligand concentration 14 (unit not given), replicate column 3 of 3): 18015
- Fluorescence competitive binding assay, OBP2 (raw fluorescence reading) ([3]; ligand concentration 16 (unit not given), replicate column 1 of 3): 15898
- Fluorescence competitive binding assay, OBP2 (raw fluorescence reading) ([3]; ligand concentration 16 (unit not given), replicate column 2 of 3): 17144
- Fluorescence competitive binding assay, OBP2 (raw fluorescence reading) ([3]; ligand concentration 16 (unit not given), replicate column 3 of 3): 15877
- Fluorescence competitive binding assay, OBP2 (raw fluorescence reading) ([3]; ligand concentration 18 (unit not given), replicate column 1 of 3): 16375
- Fluorescence competitive binding assay, OBP2 (raw fluorescence reading) ([3]; ligand concentration 18 (unit not given), replicate column 2 of 3): 13674
- Fluorescence competitive binding assay, OBP2 (raw fluorescence reading) ([3]; ligand concentration 18 (unit not given), replicate column 3 of 3): 18894
- Fluorescence competitive binding assay, OBP2 (raw fluorescence reading) ([3]; ligand concentration 20 (unit not given), replicate column 1 of 3): 16296
- Fluorescence competitive binding assay, OBP2 (raw fluorescence reading) ([3]; ligand concentration 20 (unit not given), replicate column 2 of 3): 16765
- Fluorescence competitive binding assay, OBP2 (raw fluorescence reading) ([3]; ligand concentration 20 (unit not given), replicate column 3 of 3): 17962
- Fluorescence competitive binding assay, fluorescence intensity ([4]; ligand concentration 2): 61166 and 61638 and 64447
- Fluorescence competitive binding assay, fluorescence intensity ([4]; ligand concentration 4): 63416 and 64552 and 59405
- Fluorescence competitive binding assay, fluorescence intensity ([4]; ligand concentration 6): 55740 and 58561 and 59455
- Fluorescence competitive binding assay, fluorescence intensity ([4]; ligand concentration 8): 58358 and 53959 and 58376
- Fluorescence competitive binding assay, fluorescence intensity ([4]; ligand concentration 10): 51490 and 57535 and 53641
- Fluorescence competitive binding assay, fluorescence intensity ([4]; ligand concentration 12): 51816 and 53317 and 52476
- Fluorescence competitive binding assay, fluorescence intensity ([4]; ligand concentration 14): 50240 and 49815 and 48142
- Fluorescence competitive binding assay, fluorescence intensity ([4]; ligand concentration 16): 46199 and 48600 and 42686
- Fluorescence competitive binding assay, fluorescence intensity ([4]; ligand concentration 18): 47759 and 45050 and 48665
- Fluorescence competitive binding assay, fluorescence intensity ([4]; ligand concentration 20): 47298 and 41425 and 41649
- IC50 ([4]; SfurOBP3, protein and 1-NPN both 2.0 µM, competitor 2-20 µM, read-out: IC50): > 20 µM
SMILES: CCCCCCCCC=O [nonanal]
- number of insects choosing hexane arm [5]: 12
- number of insects choosing volatilies arm [5]: 17
- number of insects failed (no choice) [5]: 11
